Article PMC12037410, “Pharmacological targeting of BMAL1 modulates circadian and immune pathways” (Nature Chemical Biology, 2025)

biological target: BMAL1 (Homo sapiens, UniProt O00327); set-up: PASB domain (residues 338–449); Protein thermal shift (PTS) fragment screen on recombinant human BMAL1(PASB), shift of melting temperature; conditions: dTmB; binder
Sequence (O00327 338-449): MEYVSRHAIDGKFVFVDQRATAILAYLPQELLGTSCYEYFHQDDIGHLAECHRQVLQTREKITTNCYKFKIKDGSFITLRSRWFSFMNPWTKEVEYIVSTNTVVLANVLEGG

SMILES	Bmal1(PASB) dTmB
Cn1ccccc1=O [Prestw-Frag-2410, Compound 227]	-0.12 °C
COC(=O)C(O)c1ccccc1 (stereo not drawn) [Prestw-Frag-2423, Compound 176]	0.02 °C
CCN(CCCCO)C(C)Cc1ccc(OC)cc1 (stereo not drawn) [Prestw-Frag-2440, Compound 249]	-0.23 °C
Nc1ccccn1 [Prestw-Frag-2443, Compound 228]	0.09 °C
COCCOC(=O)c1ccc(N)cc1 [Prestw-Frag-2453, Compound 317]	-0.58 °C
O=C1CCc2ccccc2N1 [Prestw-Frag-2464, Compound 16]	-2.13 °C
Nc1ccccc1S(N)(=O)=O [Prestw-Frag-2473, Compound 242]	0.04 °C
CCOc1ccccn1 [Prestw-Frag-2477, Compound 94]	-0.05 °C
COC(=O)C(O)(c1ccccc1)C1CCCC1 (stereo not drawn) [Prestw-Frag-2484, Compound 442]	-1.34 °C
CC(=O)N(CCC(=O)O)c1ccccc1 [Prestw-Frag-2487, Compound 222]	0.04 °C
c1ccc2cnccc2c1 [Prestw-Frag-2493, Compound 131]	-0.12 °C
COc1ccc(O)cc1O [Prestw-Frag-2499, Compound 11]	0.28 °C
c1cnccn1 [Prestw-Frag-2501, Compound 209]	0.00 °C
CC(=O)c1ccc(O)cc1O [Prestw-Frag-2506, Compound 162]	0.21 °C
OCc1ccc(O)cc1 [Prestw-Frag-2532, Compound 453]	-0.16 °C
c1ccc(C2CCNCC2)cc1 [Prestw-Frag-2537, Compound 310]	-0.53 °C
S=c1[nH]c2ccccc2[nH]1 [Prestw-Frag-2539, Compound 1]	6.28 °C
O=C(O)c1cccnc1 [Prestw-Frag-2541, Compound 64]	-0.10 °C

SMILES	Bmal1(PASB) dTmB
O=c1[nH]snc1N1CCOCC1 [Prestw-Frag-2562, Compound 37]	-0.14 °C
ClC1(Cl)CC1c1ccccc1 (stereo not drawn) [Prestw-Frag-2566, Compound 328]	0.06 °C
O=C(O)CNC(=O)c1ccccc1 [Prestw-Frag-2576, Compound 196]	0.18 °C
O=C(O)COc1ccccc1 [Prestw-Frag-2577, Compound 147]	0.25 °C
NC(=O)COc1ccccc1 [Prestw-Frag-2578, Compound 235]	-0.19 °C
O=C(O)Cc1ccccc1 [Prestw-Frag-2579, Compound 132]	-0.05 °C
NC(=O)Cc1ccccc1 [Prestw-Frag-2580, Compound 73]	-0.74 °C
NC(=O)c1ccncc1 [Prestw-Frag-2587, Compound 181]	0.25 °C
Oc1cccc2cccnc12 [Prestw-Frag-2592, Compound 119]	-0.26 °C
Clc1cccc2ncccc12 [Prestw-Frag-2593, Compound 66]	-0.75 °C
OC1c2ccccc2CCc2ccccc21 [Prestw-Frag-2600, Compound 464]	-1.43 °C
c1ccc(CCn2ccnc2)cc1 [Prestw-Frag-2608, Compound 366]	-0.49 °C
c1ccc(Cn2ccnc2)cc1 [Prestw-Frag-2620, Compound 329]	-0.49 °C
c1ccc(C(c2ccccc2)n2cncn2)cc1 [Prestw-Frag-2645, Compound 443]	-2.46 °C
N#CC1(c2ccc(F)cc2)CCCCC1 [Prestw-Frag-2647, Compound 433]	-0.64 °C
CC1(c2ccccc2)NC(=O)NC1=O (stereo not drawn) [Prestw-Frag-2652, Compound 273]	-0.17 °C
Cc1ccc(C#N)c(=O)[nH]1 [Prestw-Frag-2669, Compound 177]	-0.34 °C
O=C1CCCc2[nH]ccc21 [Prestw-Frag-2675, Compound 219]	0.11 °C
